Tests used:
Type in all cases: in vivo, Kunming female mice
[1] = viscosity of the whole blood of mice with progesterone-induced melasma; conditions: vitamin C group
SOD in mice livers = SOD in mice livers (reagent kit, spectrophotometer); conditions: vitamin C group
MDA in mice livers = test: MDA content in mice livers; conditions: vitamin C group, dosage 0.1, once a day for 30 d, progesterone-modeled mice
SOD in mice skins = test: SOD in mice skins; conditions: vitamin C group, dosage 0.1, once a day for 30 d, progesterone-modeled mice
MDA in mice skins = test: MDA content in mice skins
NO in mice skins = test: NO content in mice skins; conditions: vitamin C group, dosage 0.1, once a day for 30 d, progesterone-modeled mice
[2] = test system: melanin cells in skins of mice; test: melanin cells in skins of mice, HMB45 immunohistochemistry with image analysis; conditions: mouse skin, vitamin C group, progesterone-modeled mice
[3] = dosage 0.1, once a day for 30 d, progesterone-modeled mice
[4] = melanin-positive target, dosage 0.1, once a day for 30 d

For `O=C1O[C@H]([C@@H](O)CO)C(O)=C1O` [vitamin C], the “blood viscosity with different shear rates (mPas) 1/s” value ([1]; shear rate 1/s, dosage 0.1, once a day for 30 d, progesterone-modeled mice) was 29.22 ± 2.18 mPas, the “blood viscosity with different shear rates (mPas) 30/s” value ([1]; shear rate 30/s, dosage 0.1, once a day for 30 d, progesterone-modeled mice) was 11.22 ± 1.75 mPas and the “blood viscosity with different shear rates (mPas) 100/s” value ([1]; shear rate 100/s, dosage 0.1, once a day for 30 d, progesterone-modeled mice) was 4.60 ± 1.36 mPas. The “blood viscosities with different shear rates compared with the normal control group” value [1] was “obviously increased”, the “blood viscosity with different shear rates (mPas) 3/3” value [1, 3] was 28.85 ± 4.35 mPas and the “SOD activities compared with the modeling control group” value (SOD in mice livers) was “obviously increased”. The SOD (SOD in mice livers; [3]) was 45.62 ± 16.04, the MDA (MDA in mice livers) was 4.58 ± 1.26 and the SOD (SOD in mice skins) was 19.95 ± 5.33. For the same compound, the MDA (MDA in mice skins; vitamin C group, dosage 0.1, once a day for 30 d, progesterone-modeled mice) was 4.20 ± 1.34, the “MDA contents compared with the modeling control group” value (MDA in mice skins; vitamin group) was “obviously decreased” and the NO (NO in mice skins) was 1.71 ± 0.52. For the same compound, the average optical density [2, 4] was 0.33 ± 0.14, the integrated optical density [2, 4] was 1152.52 ± 344.09 and the “average size of positive target” value ([2]; dosage 0.1, once a day for 30 d) was 3720.56 ± 1191.13.
